Assay results reported in ChEMBL document CHEMBL1201862, “PubChem BioAssay data set” (2004).
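Exposure lasted 48 hours, with cells grown in 96-well plates and compounds tested at five concentrations. At the GI50, growth is halved.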 Activity calls are given as the source filed them. Cut-off read from the data, not from the text of the source: active = GI50 up to about 1.1 µM and inactive = higher.

Tests used:
Assay in all cases: inhibition of tumour cell growth, NCI panel, 48 h
[1] = system: ACHN
[2] = system: SF-268
[3] = system: EKVX
[4] = system: K562
[5] = system: HCT-15
[6] = system: TK-10
[7] = system: HCC 2998
[8] = system: NCI-H522
[9] = system: COLO 205
[10] = system: SK-MEL-28
[11] = system: SK-MEL-2
[12] = system: LOX IMVI
[13] = system: SK-OV-3
[14] = system: NCI-H226
[15] = system: U-251
[16] = system: SF-295
[17] = system: CAKI-1
[18] = system: OVCAR-8
[19] = system: SNB-19
[20] = system: A549

SMILES	GI50 [1]	GI50 [2]	GI50 [3]	GI50 [4]	GI50 [5]	GI50 [6]	GI50 [7]	GI50 [8]	GI50 [9]	GI50 [10]	GI50 [11]	GI50 [12]	GI50 [13]	GI50 [14]	GI50 [15]	GI50 [16]	GI50 [17]	GI50 [18]	GI50 [19]	GI50 [20]
O=C(O)C12CC3CC(C1)C2C=C3P(=O)(O)O (stereo unspecified)	> 100 µM (inactive)	> 100 µM (inactive)	> 100 µM (inactive)	> 100 µM (inactive)	> 100 µM	> 100 µM (inactive)	> 100 µM (inactive)	> 100 µM (inactive)	> 100 µM (inactive)	> 100 µM (inactive)	> 100 µM (inactive)	> 100 µM (inactive)	> 100 µM (inactive)	> 100 µM (inactive)	> 100 µM (inactive)	> 100 µM (inactive)	> 100 µM (inactive)	> 100 µM (inactive)		
CCP(=S)(CC)CCl	> 100 µM (inactive)			> 100 µM (inactive)	> 100 µM	> 100 µM (inactive)	> 100 µM (inactive)	> 100 µM (inactive)	> 100 µM (inactive)	> 100 µM (inactive)	> 100 µM (inactive)	> 100 µM (inactive)	> 100 µM (inactive)	> 100 µM (inactive)	> 100 µM (inactive)	> 100 µM (inactive)	> 100 µM (inactive)	> 100 µM (inactive)	> 100 µM (inactive)	> 100 µM (inactive)
CCOC(=O)C1=NN(c2ccccc2)C2=CC(C)=NN(C)C(=S)N21	> 100 µM (inactive)	> 100 µM (inactive)	> 100 µM (inactive)	> 100 µM (inactive)	> 100 µM	> 100 µM (inactive)	> 100 µM (inactive)	> 100 µM (inactive)	> 100 µM (inactive)	> 100 µM (inactive)	> 100 µM (inactive)	> 100 µM (inactive)	> 100 µM (inactive)		> 100 µM (inactive)	> 100 µM (inactive)	> 100 µM (inactive)	> 100 µM (inactive)	> 100 µM (inactive)	> 100 µM (inactive)
Cc1cc(O)nc(NN2C(Cl)C(=O)C2c2c(O)ccc3ccccc23)n1 (stereo unspecified)	20.7 µM (inactive)	23.1 µM (inactive)	43.8 µM (inactive)	23.2 µM (inactive)	15.6 µM	37.2 µM (inactive)	15 µM (inactive)		25.9 µM (inactive)	19.5 µM (inactive)	15.2 µM (inactive)	13.7 µM (inactive)		13 µM (inactive)	21.9 µM (inactive)			27.4 µM (inactive)	20.7 µM (inactive)	36.2 µM (inactive)
